Data published in ChEMBL document CHEMBL4619763 (J Nat Prod, 2020).
The source made the active and inactive calls. The rule behind the calls is not given here.

Columns and labels:
Rattus norvegicus [1] = assay: Diuretic activity in normotensive Wistar rat assessed as urine pH at 0.1 mg/kg, po administered via gavage after 8 hrs in presence of L-NAME (reference value: 6.14 to 6.21); format: functional
Rattus norvegicus [2] = assay: Diuretic activity in normotensive Wistar rat assessed as urine pH at 0.01 mg/kg, po administered via gavage after 8 hrs (reference value: 6.14 to 6.21); format: functional
[3] = Toxicity in spontaneous hypertensive Wistar rat assessed as changes in plasma AST level at 0.1 mg/kg, po administered for 7 days; format: organism-based; details: in vivo, 168 h
Rattus norvegicus [4] = assay: Diuretic activity in normotensive Wistar rat assessed as urine conductivity at 0.01 mg/kg, ip after 8 hrs (reference value: 24.87 +/- 0.54 mS/cm); format: functional
Rattus norvegicus [5] = assay: Diuretic activity in normotensive Wistar rat assessed as urinary calcium excretion at 0.1 mg/kg, po administered via gavage after 8 hrs in presence of indomethacin (reference value: 5.93 to 6.87 mg/dl); format: functional
Rattus norvegicus [6] = assay: Diuretic activity in normotensive Wistar rat assessed as urinary sodium excretion at 0.1 mg/kg, po administered via gavage after 8 hrs in presence of furosemide (reference value: 61.82 to 80.81 mmol/L); format: functional
Rattus norvegicus [7] = assay: In vivo antioxidant activity in Wistar rat model of hypertension-induced oxidative stress assessed as reduction in reactive oxygen species generation in renal tissue at 0.1 mg/kg, po administered via gavage for 7 days by DCFH-DA probe based fluorimetric assay; format: functional, organism-based
[8] = Toxicity in normotensive Wistar rat assessed as changes in plasma uric acid level at 0.1 mg/kg, po administered for 7 days; format: organism-based; details: in vivo, 168 h
Rattus norvegicus [9] = assay: Diuretic activity in normotensive Wistar rat assessed as urinary sodium excretion at 0.1 mg/kg, po administered via gavage after 8 hrs (reference value: 61.82 to 80.81 mmol/L); format: functional
Rattus norvegicus [10] = assay: Diuretic activity in normotensive Wistar rat assessed as urine conductivity at 0.1 mg/kg, po administered via gavage after 8 hrs in presence of amiloride (reference value: 19.54 +/- 0.98 mS/cm); format: functional
Rattus norvegicus [11] = assay: Diuretic activity in normotensive Wistar rat assessed as urinary sodium excretion at 0.1 mg/kg, po administered via gavage after 8 hrs in presence of atropine (reference value: 61.82 to 80.81 mmol/L); format: functional
[12] = Anti-urolithic activity in synthetic urine assessed as decrease in absorbance at 0.1 mg/mL after 60 mins relative to control; format: functional; parameters: scale not given: the % may be the effect or the level left
Rattus norvegicus [13] = assay: Diuretic activity in normotensive Wistar rat assessed as urinary calcium excretion at 0.01 mg/kg, po administered via gavage after 8 hrs (reference value: 5.93 to 6.87 mg/dl); format: functional
[14] = Toxicity in spontaneous hypertensive Wistar rat assessed as changes in urinary creatinine at 0.1 mg/kg, po administered for 7 days; format: organism-based; details: in vivo, 168 h
Rattus norvegicus [15] = assay: Diuretic activity in normotensive Wistar rat assessed as urinary calcium excretion at 0.1 mg/kg, po administered via gavage after 8 hrs in presence of furosemide (reference value: 5.93 to 6.87 mg/dl); format: functional
Rattus norvegicus [16] = assay: Diuretic activity in normotensive Wistar rat assessed as urinary chloride excretion at 0.1 mg/kg, po administered via gavage after 8 hrs in presence of atropine (reference value: 135.10 to 143.70 mmol/L); format: functional
Rattus norvegicus [17] = assay: Diuretic activity in spontaneous hypertensive Wistar rat assessed as effect on urinary potassium excretion at 0.1 mg/kg, po administered via gavage for 7 days; format: ADME, organism-based; details: in vivo, 168 h
[18] = Toxicity in spontaneous hypertensive Wistar rat assessed as changes in plasma sodium level at 0.1 mg/kg, po administered for 7 days; format: organism-based; details: in vivo, 168 h
Rattus norvegicus [19] = assay: Diuretic activity in normotensive Wistar rat assessed as urine conductivity at 0.1 mg/kg, po administered via gavage after 8 hrs (reference value: 19.54 +/- 0.98 mS/cm); format: functional
Rattus norvegicus [20] = assay: Renal protective activity in spontaneous hypertensive Wistar rat assessed as reduction in hypertension-induced glomerular size at 0.1 mg/kg, po administered via gavage for 7 days by hematoxylin and eosin staining based microscopic analysis; format: functional, organism-based
Rattus norvegicus [21] = assay: Diuretic activity in normotensive Wistar rat assessed as urinary calcium excretion at 0.1 mg/kg, po administered via gavage after 8 hrs in presence of hydrochlorothiazide (reference value: 5.93 to 6.87 mg/dl); format: functional
Rattus norvegicus [22] = assay: Diuretic activity in normotensive Wistar rat assessed as urine pH at 0.1 mg/kg, po administered via gavage after 8 hrs in presence of atropine (reference value: 6.14 to 6.21); format: functional
[23] = Anti-urolithic activity in synthetic urine assessed as reduction in CaOx crystal formation at 0.01 mg/mL in presence of sodium oxalate after 60 mins by Neubauer counting chamber method relative to control; format: functional; parameters: scale not given: the % may be the effect or the level left
Rattus norvegicus [24] = assay: Diuretic activity in normotensive Wistar rat assessed as urine pH at 0.1 mg/kg, po administered via gavage after 8 hrs in presence of hydrochlorothiazide (reference value: 6.14 to 6.21); format: functional
Rattus norvegicus [25] = assay: Diuretic activity in normotensive Wistar rat assessed as urinary potassium excretion at 0.1 mg/kg, po administered via gavage after 8 hrs in presence of hydrochlorothiazide (reference value: 22.39 to 24.21 mmol/L); format: ADME, organism-based; details: in vivo
Rattus norvegicus [26] = assay: Diuretic activity in normotensive Wistar rat assessed as urinary sodium excretion at 0.1 mg/kg, ip after 8 hrs (reference value: 81.56 +/- 13.10 mmol/L); format: functional
Rattus norvegicus [27] = assay: Diuretic activity in normotensive Wistar rat assessed as urinary sodium excretion at 0.01 mg/kg, ip after 8 hrs (reference value: 81.56 +/- 13.10 mmol/L); format: functional
Rattus norvegicus [28] = assay: Diuretic activity in normotensive Wistar rat assessed as urine pH at 1 mg/kg, ip after 8 hrs (reference value: 6.05 +/- 0.22); format: functional
Rattus norvegicus [29] = assay: Diuretic activity in normotensive Wistar rat assessed as urinary chloride excretion at 0.1 mg/kg, ip […] after 8 hrs (reference value: 103.30 +/- 10.25 mmol/L); format: functional
Rattus norvegicus [30] = assay: Diuretic activity in normotensive Wistar rat assessed as urine conductivity at 1 mg/kg, po administered via gavage after 8 hrs (reference value: 19.54 +/- 0.98 mS/cm); format: functional
[31] = Toxicity in normotensive Wistar rat assessed as changes in plasma AST level at 0.1 mg/kg, po administered for 7 days; format: organism-based; details: in vivo, 168 h
Rattus norvegicus [32] = assay: Diuretic activity in normotensive Wistar rat assessed as urinary potassium excretion at 0.1 mg/kg, po administered via gavage after 8 hrs in presence of L-NAME (reference value: 22.39 to 24.21 mmol/L); format: ADME, organism-based; details: in vivo
Rattus norvegicus [33] = assay: Diuretic activity in normotensive Wistar rat assessed as urinary potassium excretion at 0.1 mg/kg, po administered via gavage after 8 hrs in presence of indomethacin (reference value: 22.39 to 24.21 mmol/L); format: ADME, organism-based; details: in vivo
Rattus norvegicus [34] = assay: Renal protective activity in spontaneous hypertensive Wistar rat assessed as reduction in hypertension-induced Bowman's capsule thickening at 0.1 mg/kg, po administered via gavage for 7 days by hematoxylin and eosin staining based microscopic analysis; format: functional, organism-based
Rattus norvegicus [35] = assay: Diuretic activity in normotensive Wistar rat assessed as urinary calcium excretion at 0.1 mg/kg, po administered via gavage after 8 hrs in presence of atropine (reference value: 5.93 to 6.87 mg/dl); format: functional

## C[C@@H]1O[C@@H](Oc2c(-c3ccc(O)cc3)oc3cc(O)cc(O)c3c2=O)[C@H](O)[C@H](O)[C@H]1O [AFZELIN]
Rattus norvegicus [1]
  pH: 6.43
Rattus norvegicus [2]
  pH: 5.73
[3]
  Activity: Non-Toxic
Rattus norvegicus [4]
  Activity: 26.4 mS/cm
Rattus norvegicus [5]
  Activity: 4.82 mg/dL
Rattus norvegicus [6]
  Activity: 75.54 mmol/L
Rattus norvegicus [7]
  Activity: Active
[8]
  Activity: Non-Toxic
Rattus norvegicus [9]
  Activity: 53.09 to 56.99 mmol/L
Rattus norvegicus [10]
  Activity: 15.25 mS/cm
Rattus norvegicus [11]
  Activity: 57.23 mmol/L
[12]
  Activity: 27.21%
Rattus norvegicus [13]
  Activity: 5.23 mg/dL
[14]
  Activity: Non-Toxic
Rattus norvegicus [15]
  Activity: 5.36 mg/dL
Rattus norvegicus [16]
  Activity: 231.8 mmol/L
Rattus norvegicus [17]
  Activity: Non-Toxic
[18]
  Activity: Non-Toxic
Rattus norvegicus [19]
  Activity: 17.05 - 18.31 mS/cm
Rattus norvegicus [20]
  Activity: Active
Rattus norvegicus [21]
  Activity: 4.54 mg/dL
Rattus norvegicus [22]
  pH: 6.14
[23]
  Activity: 57.47%
Rattus norvegicus [24]
  pH: 6.42
Rattus norvegicus [25]
  Activity: 33.28 mmol/L
Rattus norvegicus [26]
  Activity: 40.93 mmol/L
Rattus norvegicus [27]
  Activity: 51.84 mmol/L
Rattus norvegicus [28]
  pH: 5.91
Rattus norvegicus [29]
  Activity: 78.12 mmol/L
Rattus norvegicus [30]
  Activity: 17.48 mS/cm
[31]
  Activity: Non-Toxic
Rattus norvegicus [32]
  Activity: 14.84 mmol/L
Rattus norvegicus [33]
  Activity: 17.87 mmol/L
Rattus norvegicus [34]
  Activity: Active
Rattus norvegicus [35]
  Activity: 4.69 mg/dL
